Melting point data for 34 molecules are collected here from a melting point compilation (Tetko et al.; mined from patent text by program, amines drawn as free bases though some values may be those of a salt).

Each structure is given as a SMILES string.

In turn, `COC(=O)C1CC2(CN1C(=O)CN(C)CC(=O)C(Cc1ccccc1)NC(=O)c1ccccc1)SCCS2` (centres undefined) gave a melting point of 60 to 62 °C.
`COc1cccc(-c2cccc3c2CCn2cc(-c4ccccc4)nc2C3OC2CCN(C)CC2)c1` (centres undefined) yielded a melting point of 93 °C.
Under `COC(=O)c1cccc(S(=O)(=O)N2CCC(N3N=C(c4ccc(OC)c(OC)c4)C(C)(C)C3=O)CC2)c1` stands 214 °C; under `Cn1nc(N)c2sc3ccccc3c21`, 177 to 178 °C.
Under `CN1CCN(C2=Cc3cc(Cl)ccc3Oc3ccccc32)CC1` stands 119 to 121 °C; under `N#Cc1c(-c2ccc(Cl)cc2)c(-c2ccc(Cl)cc2)nn(CCO)c1=O`, 122 to 123 °C.
For `COc1cc(CCc2c(C=O)ccc(OC)c2OC)cc(OC)c1` the value was 88 to 89 °C.
Molecule `COC(=O)c1ccccc1SC1=C(O)CC(CCc2ccccc2)(c2ccccc2)OC1=O` (centres undefined) registered a melting point of 91 to 92 °C.
For the molecule `Cc1cc(COC2CCCO2)nc(N)n1` (centres undefined), the melting point lay in the range of 109 to 110 °C.
For `COc1cc(NC(=O)Nc2ccccc2)ccn1` the value was 127 to 129 °C; for `COc1cc(C=Cc2ccccc2)cc(OC)c1`, 56.4 °C; for `NS(=O)(=O)c1ccc2c(c1)C=C(C(=O)O)C(C(F)(F)F)O2` (centres undefined), 188 to 190 °C.
For `CCCn1nc2c(N)nc3ccccc3c2c1NCCC1CCN(C(=O)NC(C)C)CC1` the value was 168 to 170 °C.
For `O=C1C(=Cc2ccccc2)N2CCC1C2` (centres undefined) the value was 61 to 63 °C; for `N#Cc1cc(Oc2ccc(Cl)cc2Cl)c(O)cc1Cl`, 145 to 150 °C; for `O=C(Nc1ccc(N2CCC2)nc1)c1cc2cc(C(F)(F)F)cnc2n1Cc1cccc(F)c1`, 243 to 244 °C.
Regarding `O=C(O)CN1C(=O)C(=Cc2ccc(OCc3ccccc3)c(OCc3ccccc3)c2)SC1=S`, the melting point lay in the range of 235 to 238 °C.
`O=C(O)Cc1ccc(OCc2c(Cl)cccc2C(=O)O)cc1` returned a melting point of 171 to 173 °C.
Molecule `COC(=O)CSc1cc(C)ccc1[N+](=O)[O-]` gave a melting point of 74 to 75 °C.
Under `CC(C)(C)OC(=O)N1CCN(C(=O)SCc2ccc(O[Si](C)(C)C(C)(C)C)cc2)CC1` stands 53 to 54 °C; under `CCOc1nc(N)nc2c1CCC2`, 134 to 135 °C.
Turning to `Cc1ccccc1-n1c(CF)nc2ccc(N)cc2c1=O`, the melting point was in the range of 195 to 196 °C.
Under `COC(=O)C=C(c1ccccc1)c1ccc2nc(N)n(S(=O)(=O)C(C)C)c2c1` stands 160 to 165 °C.
For `CCC(C)c1ccc(-n2c(-c3cc(C)c(OCCO)c(C)c3)nc3ccc(F)cc3c2=O)cc1` (centres undefined) the value was 70 to 72 °C.
The molecule `O=C(O)Cc1c(C(=O)c2ccncc2)[nH]c2cc(Cl)ccc12` returned a melting point of 256 to 257 °C.
Under `CCn1ncc2c(NCC3CCCCC3)c3cc(O)ccc3nc21` stands 223 to 224 °C.
For `C#Cc1cnn2c(C)cc(-c3ccc(C(F)(F)F)cc3)nc12` the value was 89 to 90 °C.
Under `CS(=O)(=O)c1ccc(-c2cc(C(F)(F)F)nn2-c2ccc(OC(F)(F)F)cc2)cc1F` stands 110 to 112 °C; under `CC(C)(C)OC(=O)N1CCN2C(=O)OC(Cc3ccccc3)(Cc3ccccc3)C2C1` (centres undefined), 188 to 189 °C.
`CC(=NOCCOc1ccc(CC2SC(=O)N(C(c3ccccc3)(c3ccccc3)c3ccccc3)C2=O)cc1)c1ccc(-c2ccccc2)nc1` (centres undefined) gave a melting point of 186 to 187 °C.
For `O=C(C=Cc1cccnc1)c1ccccc1OCc1ccccc1`, the melting point lay within 117 to 119 °C.
Take `CCOC(=O)C=Cc1ccc(OC)c2c1CC1(CCCC1)O2`: the melting point is 81 to 91 °C.
Under `O=C(c1ccc(F)cc1)C1CCN(CC2CC(c3ccc4[nH]c(=O)oc4c3)=NO2)CC1` (centres undefined) stands 188 to 190 °C; under `CCOC(=O)c1cnc2c(F)c(F)ccc2c1Cl`, 114 °C.

Broadly, the melting point is the temperature, or range, at which the solid turns liquid.
